Test system: 422866-222-R5-J1-PDC complex spheroids viability
Test: Anticancer human tumor 422866-222-R5-J1-PDC patient-derived pancreatic adenocarcinoma cell line growth inhibition [RAS]
Conditions: for IC50: curve of first compound; for viability, T/C: stronger effect = lower value
Outline: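 Multi-cell-type spheroids: tumor cells plus HUVEC endothelial cells and mesenchymal stem cells. RAS-pathway inhibitors were combined with targeted agents, each dosed in half-log steps down from clinical Cmax, or from 10 microM when Cmax was unknown.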

[1] = second compound 0.000949 µM, first compound 0.0316 µM
[2] = second compound 0.000949 µM, first compound 0.1 µM
[3] = second compound 0.000949 µM, first compound 0.316 µM
[4] = second compound 0.000949 µM, first compound 1 µM
[5] = second compound 0.000949 µM, first compound 3.16 µM
[6] = second compound 0.000949 µM, first compound 10 µM
[7] = second compound 0.003 µM, first compound 0.0316 µM
[8] = second compound 0.003 µM, first compound 0.1 µM
[9] = second compound 0.003 µM, first compound 0.316 µM
[10] = second compound 0.003 µM, first compound 1 µM
[11] = second compound 0.003 µM, first compound 3.16 µM
[12] = second compound 0.003 µM, first compound 10 µM
[13] = second compound 0.00949 µM, first compound 0.0316 µM
[14] = second compound 0.00949 µM, first compound 0.1 µM
[15] = second compound 0.00949 µM, first compound 0.316 µM
[16] = second compound 0.00949 µM, first compound 1 µM
[17] = second compound 0.00949 µM, first compound 3.16 µM
[18] = second compound 0.00949 µM, first compound 10 µM
[19] = second compound 0.03 µM, first compound 0.0316 µM
[20] = second compound 0.03 µM, first compound 0.1 µM
[21] = second compound 0.03 µM, first compound 0.316 µM
[22] = second compound 0.03 µM, first compound 1 µM
[23] = second compound 0.03 µM, first compound 3.16 µM
[24] = second compound 0.03 µM, first compound 10 µM
[25] = second compound 0.0949 µM, first compound 0.0316 µM
[26] = second compound 0.0949 µM, first compound 0.1 µM
[27] = second compound 0.0949 µM, first compound 0.316 µM
[28] = second compound 0.0949 µM, first compound 1 µM
[29] = second compound 0.0949 µM, first compound 3.16 µM
[30] = second compound 0.0949 µM, first compound 10 µM
[31] = second compound 0.3 µM, first compound 0.0316 µM
[32] = second compound 0.3 µM, first compound 0.1 µM
[33] = second compound 0.3 µM, first compound 0.316 µM
[34] = second compound 0.3 µM, first compound 1 µM
[35] = second compound 0.3 µM, first compound 3.16 µM
[36] = second compound 0.3 µM, first compound 10 µM
[37] = second compound 0.000949 µM, first compound 0.00316 µM
[38] = second compound 0.000949 µM, first compound 0.01 µM
[39] = second compound 0.003 µM, first compound 0.00316 µM
[40] = second compound 0.003 µM, first compound 0.01 µM
[41] = second compound 0.00949 µM, first compound 0.00316 µM
[42] = second compound 0.00949 µM, first compound 0.01 µM
[43] = second compound 0.03 µM, first compound 0.00316 µM
[44] = second compound 0.03 µM, first compound 0.01 µM
[45] = second compound 0.0949 µM, first compound 0.00316 µM
[46] = second compound 0.0949 µM, first compound 0.01 µM
[47] = second compound 0.3 µM, first compound 0.00316 µM
[48] = second compound 0.3 µM, first compound 0.01 µM
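Also: spheroids exposed to compounds for 7 days.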
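For viability, T/C in this document: 100% = DMSO vehicle control viability.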

## CC(C)NCC(C(=O)N1CCN(c2ncnc3c2C(C)CC3O)CC1)c1ccc(Cl)cc1 (stereo not drawn) + CCn1c(-c2cccnc2C(C)OC)c2c3cc(ccc31)N1CCOC(CC(NC(=O)C(C(C)C)N(C)C(=O)C3(F)CCN(C(=O)C#CC(C)(C)N(C)C)CC3)C(=O)N3CCCC(N3)C(=O)OCC(C)(C)C2)C1
Second compound 0.000949 µM
  IC50: < 31.6 nM
Second compound 0.003 µM
  IC50: < 31.6 nM
Second compound 0.00949 µM
  IC50: < 31.6 nM
Second compound 0.03 µM
  IC50: < 31.6 nM
Second compound 0.0949 µM
  IC50: < 31.6 nM
Second compound 0.3 µM
  IC50: < 31.6 nM
[1]
  viability, T/C: 23%
[2]
  viability, T/C: 23.2%
[3]
  viability, T/C: 17.5%
[4]
  viability, T/C: 25%
[5]
  viability, T/C: 30.9%
[6]
  viability, T/C: 29.7%
[7]
  viability, T/C: 22.5%
[8]
  viability, T/C: 17.6%
[9]
  viability, T/C: 14.4%
[10]
  viability, T/C: 14.7%
[11]
  viability, T/C: 14.4%
[12]
  viability, T/C: 16.7%
[13]
  viability, T/C: 21.1%
[14]
  viability, T/C: 18.9%
[15]
  viability, T/C: 13.8%
[16]
  viability, T/C: 13.3%
[17]
  viability, T/C: 14.8%
[18]
  viability, T/C: 14.6%
[19]
  viability, T/C: 17.5%
[20]
  viability, T/C: 16%
[21]
  viability, T/C: 12.9%
[22]
  viability, T/C: 12.1%
[23]
  viability, T/C: 14.2%
[24]
  viability, T/C: 16.2%
[25]
  viability, T/C: 15.2%
[26]
  viability, T/C: 12%
[27]
  viability, T/C: 11.8%
[28]
  viability, T/C: 13.2%
[29]
  viability, T/C: 15.3%
[30]
  viability, T/C: 14.1%
[31]
  viability, T/C: 13.8%
[32]
  viability, T/C: 13.4%
[33]
  viability, T/C: 11.3%
[34]
  viability, T/C: 11.4%
[35]
  viability, T/C: 14.7%
[36]
  viability, T/C: 11.6%

## CC(C)n1nc(-c2ccc3oc(N)nc3c2)c2c(N)ncnc21 + CCn1c(-c2cccnc2C(C)OC)c2c3cc(ccc31)N1CCOC(CC(NC(=O)C(C(C)C)N(C)C(=O)C3(F)CCN(C(=O)C#CC(C)(C)N(C)C)CC3)C(=O)N3CCCC(N3)C(=O)OCC(C)(C)C2)C1
Second compound 0.000949 µM
  IC50: < 0.316 nM
Second compound 0.003 µM
  IC50: < 0.316 nM
Second compound 0.00949 µM
  IC50: < 0.316 nM
Second compound 0.03 µM
  IC50: < 0.316 nM
Second compound 0.0949 µM
  IC50: < 0.316 nM
Second compound 0.3 µM
  IC50: < 0.316 nM
Second compound 0.000949 µM, first compound 0.000316 µM
  viability, T/C: 26.9%
Second compound 0.000949 µM, first compound 0.001 µM
  viability, T/C: 24.3%
[37]
  viability, T/C: 24.7%
[38]
  viability, T/C: 22.9%
[1]
  viability, T/C: 23.1%
[2]
  viability, T/C: 22.1%
Second compound 0.003 µM, first compound 0.000316 µM
  viability, T/C: 23.4%
Second compound 0.003 µM, first compound 0.001 µM
  viability, T/C: 18.7%
[39]
  viability, T/C: 21%
[40]
  viability, T/C: 17.6%
[7]
  viability, T/C: 14.1%
[8]
  viability, T/C: 16.5%
Second compound 0.00949 µM, first compound 0.000316 µM
  viability, T/C: 23.4%
Second compound 0.00949 µM, first compound 0.001 µM
  viability, T/C: 25.9%
[41]
  viability, T/C: 19.4%
[42]
  viability, T/C: 16.5%
[13]
  viability, T/C: 14.7%
[14]
  viability, T/C: 12.2%
Second compound 0.03 µM, first compound 0.000316 µM
  viability, T/C: 21.5%
Second compound 0.03 µM, first compound 0.001 µM
  viability, T/C: 17.6%
[43]
  viability, T/C: 17.5%
[44]
  viability, T/C: 16.6%
[19]
  viability, T/C: 15.4%
[20]
  viability, T/C: 15.6%
Second compound 0.0949 µM, first compound 0.000316 µM
  viability, T/C: 17.8%
Second compound 0.0949 µM, first compound 0.001 µM
  viability, T/C: 15.4%
[45]
  viability, T/C: 16.9%
[46]
  viability, T/C: 15.2%
[25]
  viability, T/C: 12.2%
[26]
  viability, T/C: 12.5%
Second compound 0.3 µM, first compound 0.000316 µM
  viability, T/C: 15.4%
Second compound 0.3 µM, first compound 0.001 µM
  viability, T/C: 18.8%
[47]
  viability, T/C: 15.2%
[48]
  viability, T/C: 15.1%
[31]
  viability, T/C: 12.3%
[32]
  viability, T/C: 10.2%

## CC(Nc1ccc2c(c1)OCCn1cc(N3C(=O)OCC3C(F)F)nc1-2)C(N)=O (stereo not drawn) + CCn1c(-c2cccnc2C(C)OC)c2c3cc(ccc31)N1CCOC(CC(NC(=O)C(C(C)C)N(C)C(=O)C3(F)CCN(C(=O)C#CC(C)(C)N(C)C)CC3)C(=O)N3CCCC(N3)C(=O)OCC(C)(C)C2)C1
Second compound 0.000949 µM
  IC50: < 31.6 nM
Second compound 0.003 µM
  IC50: < 31.6 nM
Second compound 0.00949 µM
  IC50: < 31.6 nM
Second compound 0.03 µM
  IC50: < 31.6 nM
Second compound 0.0949 µM
  IC50: < 31.6 nM
Second compound 0.3 µM
  IC50: < 31.6 nM
[1]
  viability, T/C: 18.2%
[2]
  viability, T/C: 15.9%
[3]
  viability, T/C: 10.3%
[4]
  viability, T/C: 9.14%
[5]
  viability, T/C: 26.9%
[6]
  viability, T/C: 6.64%
[7]
  viability, T/C: 14.5%
[8]
  viability, T/C: 11.7%
[9]
  viability, T/C: 9.43%
[10]
  viability, T/C: 9.79%
[11]
  viability, T/C: 19.8%
[12]
  viability, T/C: 5.92%
[13]
  viability, T/C: 14.6%
[14]
  viability, T/C: 11.4%
[15]
  viability, T/C: 9.65%
[16]
  viability, T/C: 6.24%
[17]
  viability, T/C: 17.5%
[18]
  viability, T/C: 5.13%
[19]
  viability, T/C: 12.7%
[20]
  viability, T/C: 10.8%
[21]
  viability, T/C: 8.08%
[22]
  viability, T/C: 5.84%
[23]
  viability, T/C: 16.7%
[24]
  viability, T/C: 4.66%
[25]
  viability, T/C: 13.7%
[26]
  viability, T/C: 9.18%
[27]
  viability, T/C: 8.36%
[28]
  viability, T/C: 5.71%
[29]
  viability, T/C: 17.2%
[30]
  viability, T/C: 3.5%
[31]
  viability, T/C: 10.9%
[32]
  viability, T/C: 8.1%
[33]
  viability, T/C: 5.84%
[34]
  viability, T/C: 3.47%
[35]
  viability, T/C: 10%
[36]
  viability, T/C: 2.74%

## O=C(c1ccc(F)c(F)c1Nc1ccc(I)cc1F)N1CC(O)([C@@H]2CCCCN2)C1 + CCn1c(-c2cccnc2C(C)OC)c2c3cc(ccc31)N1CCOC(CC(NC(=O)C(C(C)C)N(C)C(=O)C3(F)CCN(C(=O)C#CC(C)(C)N(C)C)CC3)C(=O)N3CCCC(N3)C(=O)OCC(C)(C)C2)C1
Second compound 0.000949 µM
  IC50: < 3.16 nM
Second compound 0.003 µM
  IC50: < 3.16 nM
Second compound 0.00949 µM
  IC50: < 3.16 nM
Second compound 0.03 µM
  IC50: < 3.16 nM
Second compound 0.0949 µM
  IC50: < 3.16 nM
Second compound 0.3 µM
  IC50: < 3.16 nM
[37]
  viability, T/C: 27.1%
[38]
  viability, T/C: 26.5%
[1]
  viability, T/C: 21.4%
[2]
  viability, T/C: 16.9%
[3]
  viability, T/C: 14.8%
[4]
  viability, T/C: 14%
[39]
  viability, T/C: 23.4%
[40]
  viability, T/C: 17.8%
[7]
  viability, T/C: 16.9%
[8]
  viability, T/C: 12.3%
[9]
  viability, T/C: 10.9%
[10]
  viability, T/C: 11.7%
[41]
  viability, T/C: 26.2%
[42]
  viability, T/C: 19.9%
[13]
  viability, T/C: 16.2%
[14]
  viability, T/C: 14.1%
[15]
  viability, T/C: 11.1%
[16]
  viability, T/C: 9.8%
[43]
  viability, T/C: 19.6%
[44]
  viability, T/C: 15.5%
[19]
  viability, T/C: 14.3%
[20]
  viability, T/C: 11.5%
[21]
  viability, T/C: 11.7%
[22]
  viability, T/C: 9.56%
[45]
  viability, T/C: 16.5%
[46]
  viability, T/C: 13.1%
[25]
  viability, T/C: 13%
[26]
  viability, T/C: 9.14%
[27]
  viability, T/C: 11.8%
[28]
  viability, T/C: 10.4%
[47]
  viability, T/C: 15.7%
[48]
  viability, T/C: 13.3%
[31]
  viability, T/C: 10.9%
[32]
  viability, T/C: 9.97%
[33]
  viability, T/C: 12.4%
[34]
  viability, T/C: 12.1%
